Laboratory results: ChEMBL document CHEMBL3885881, “DrugMatrix”

Species: Rattus norvegicus
Assay: DrugMatrix - Regimen: Daily Repeat
Type: toxicity, organism-based, Sprague-Dawley
Design: regimen Daily Repeat, gender Male, age 6-8 weeks
Settings: in vivo, po, route oral GAVAGE, […]; for ABSOLUTE BASOPHIL / ABSOLUTE EOSINOPHIL / ABSOLUTE LYMPHOCYTE / ABSOLUTE MONOCYTE / ABSOLUTE SEGMENTED NEUTROPHIL / BASOPHIL / EOSINOPHIL / ERYTHROCYTE COUNT / HEMATOCRIT / HEMOGLOBIN / LEUKOCYTE COUNT / LYMPHOCYTE / MEAN CORPUSCULAR HEMOGLOBIN / MEAN CORPUSCULAR HEMOGLOBIN CONCENTRATION / MEAN CORPUSCULAR VOLUME / MONOCYTE / NEUTROPHIL / NUCLEATED RED BLOOD CELLS / PLATELET COUNT: tissue Blood; for ALANINE AMINOTRANSFERASE / ALBUMIN / ALKALINE PHOSPHATASE / ASPARTATE AMINOTRANSFERASE / BLOOD UREA NITROGEN / CARBON DIOXIDE / CHLORIDE / CHOLESTEROL / CREATINE PHOSPHOKINASE / CREATININE / GLUCOSE / LACTATE DEHYDROGENASE / LIPASE / PHOSPHORUS / POTASSIUM / SODIUM / TOTAL BILIRUBIN / TOTAL PROTEIN / URIC ACID: tissue Plasma
[1] = 24 mg/kg, 72 h, dose level Low, time 3 day
[2] = 24 mg/kg, 120 h, dose level Low, time 5 day
[3] = 93 mg/kg, 72 h, dose level High, time 3 day
[4] = 93 mg/kg, 120 h, dose level High, time 5 day

Cc1cccc(Nc2ccccc2C(=O)O)c1C [MEFENAMIC ACID]
ABSOLUTE BASOPHIL [1]: 0 CELLS/uL
ABSOLUTE EOSINOPHIL [1]: 120.67 CELLS/uL
ABSOLUTE LYMPHOCYTE [1]: 16868.33 CELLS/uL
ABSOLUTE MONOCYTE [1]: 133 CELLS/uL
ABSOLUTE SEGMENTED NEUTROPHIL [1]: 1478 CELLS/uL
BASOPHIL [1]: 0%
EOSINOPHIL [1]: 0.67%
ERYTHROCYTE COUNT [1]: 5.76 x10E6/uL
HEMATOCRIT [1]: 38.77%
HEMOGLOBIN [1]: 15.4 G/DL
LEUKOCYTE COUNT [1]: 18.6 x10E3/uL
LYMPHOCYTE [1]: 90.67%
MEAN CORPUSCULAR HEMOGLOBIN [1]: 26.73 pg
MEAN CORPUSCULAR HEMOGLOBIN CONCENTRATION [1]: 39.73 G/DL
MEAN CORPUSCULAR VOLUME [1]: 67.37 fL
MONOCYTE [1]: 0.67%
NEUTROPHIL [1]: 8%
NUCLEATED RED BLOOD CELLS [1]: 0 /100WBC
PLATELET COUNT [1]: 1314.33 x10E3/uL
ALANINE AMINOTRANSFERASE [1]: 80.67 u/L
ALBUMIN [1]: 4.33 G/DL
ALKALINE PHOSPHATASE [1]: 454.67 u/L
ASPARTATE AMINOTRANSFERASE [1]: 99.67 u/L
BLOOD UREA NITROGEN [1]: 12 mg/dL
CARBON DIOXIDE [1]: 32 mmol/L
CHLORIDE [1]: 102.33 MEQ/L
CHOLESTEROL [1]: 71 mg/dL
CREATINE PHOSPHOKINASE [1]: 725 u/L
CREATININE [1]: 0.28 mg/dL
GLUCOSE [1]: 165.67 mg/dL
LACTATE DEHYDROGENASE [1]: 174.67 u/L
LIPASE [1]: 13 u/L
PHOSPHORUS [1]: 13.37 mg/dL
POTASSIUM [1]: 6.54 MEQ/L
SODIUM [1]: 146.73 MEQ/L
TOTAL BILIRUBIN [1]: 0.2 mg/dL
TOTAL PROTEIN [1]: 6 G/DL
URIC ACID [1]: 1.83 mg/dL
ABSOLUTE BASOPHIL [2]: 0 CELLS/uL
ABSOLUTE EOSINOPHIL [2]: 0 CELLS/uL
ABSOLUTE LYMPHOCYTE [2]: 17204 CELLS/uL
ABSOLUTE MONOCYTE [2]: 113.33 CELLS/uL
ABSOLUTE SEGMENTED NEUTROPHIL [2]: 1482.67 CELLS/uL
BASOPHIL [2]: 0%
EOSINOPHIL [2]: 0%
ERYTHROCYTE COUNT [2]: 5.87 x10E6/uL
HEMATOCRIT [2]: 36.9%
HEMOGLOBIN [2]: 14.47 G/DL
LEUKOCYTE COUNT [2]: 18.8 x10E3/uL
LYMPHOCYTE [2]: 91.33%
MEAN CORPUSCULAR HEMOGLOBIN [2]: 24.67 pg
MEAN CORPUSCULAR HEMOGLOBIN CONCENTRATION [2]: 39.23 G/DL
MEAN CORPUSCULAR VOLUME [2]: 62.87 fL
MONOCYTE [2]: 0.67%
NEUTROPHIL [2]: 8%
NUCLEATED RED BLOOD CELLS [2]: 0.33 /100WBC
PLATELET COUNT [2]: 1359 x10E3/uL
ALANINE AMINOTRANSFERASE [2]: 61.67 u/L
ALBUMIN [2]: 4.17 G/DL
ALKALINE PHOSPHATASE [2]: 457.33 u/L
ASPARTATE AMINOTRANSFERASE [2]: 87.33 u/L
BLOOD UREA NITROGEN [2]: 13.33 mg/dL
CARBON DIOXIDE [2]: 31.33 mmol/L
CHLORIDE [2]: 101.67 MEQ/L
CHOLESTEROL [2]: 67.67 mg/dL
CREATINE PHOSPHOKINASE [2]: 379.33 u/L
CREATININE [2]: 0.19 mg/dL
GLUCOSE [2]: 144.67 mg/dL
LACTATE DEHYDROGENASE [2]: 449.33 u/L
LIPASE [2]: 11.33 u/L
PHOSPHORUS [2]: 11.87 mg/dL
POTASSIUM [2]: 6.54 MEQ/L
SODIUM [2]: 145.2 MEQ/L
TOTAL BILIRUBIN [2]: 0.2 mg/dL
TOTAL PROTEIN [2]: 5.97 G/DL
URIC ACID [2]: 1.43 mg/dL
ABSOLUTE BASOPHIL [3]: 0 CELLS/uL
ABSOLUTE EOSINOPHIL [3]: 46.33 CELLS/uL
ABSOLUTE LYMPHOCYTE [3]: 12604 CELLS/uL
ABSOLUTE MONOCYTE [3]: 348.67 CELLS/uL
ABSOLUTE SEGMENTED NEUTROPHIL [3]: 1701 CELLS/uL
BASOPHIL [3]: 0%
EOSINOPHIL [3]: 0.33%
ERYTHROCYTE COUNT [3]: 5.47 x10E6/uL
HEMATOCRIT [3]: 35.43%
HEMOGLOBIN [3]: 13.77 G/DL
LEUKOCYTE COUNT [3]: 14.7 x10E3/uL
LYMPHOCYTE [3]: 85.67%
MEAN CORPUSCULAR HEMOGLOBIN [3]: 25.17 pg
MEAN CORPUSCULAR HEMOGLOBIN CONCENTRATION [3]: 38.9 G/DL
MEAN CORPUSCULAR VOLUME [3]: 64.77 fL
MONOCYTE [3]: 2.33%
NEUTROPHIL [3]: 11.67%
NUCLEATED RED BLOOD CELLS [3]: 0.33 /100WBC
PLATELET COUNT [3]: 1191.33 x10E3/uL
ALANINE AMINOTRANSFERASE [3]: 64.33 u/L
ALBUMIN [3]: 3.93 G/DL
ALKALINE PHOSPHATASE [3]: 288.33 u/L
ASPARTATE AMINOTRANSFERASE [3]: 83 u/L
BLOOD UREA NITROGEN [3]: 11 mg/dL
CARBON DIOXIDE [3]: 34 mmol/L
CHLORIDE [3]: 101.67 MEQ/L
CHOLESTEROL [3]: 82 mg/dL
CREATINE PHOSPHOKINASE [3]: 546.33 u/L
CREATININE [3]: 0.16 mg/dL
GLUCOSE [3]: 149 mg/dL
LACTATE DEHYDROGENASE [3]: 123 u/L
LIPASE [3]: 11 u/L
PHOSPHORUS [3]: 12.4 mg/dL
POTASSIUM [3]: 6.65 MEQ/L
SODIUM [3]: 145.07 MEQ/L
TOTAL BILIRUBIN [3]: 0.17 mg/dL
TOTAL PROTEIN [3]: 5.63 G/DL
URIC ACID [3]: 1.57 mg/dL
ABSOLUTE BASOPHIL [4]: 0 CELLS/uL
ABSOLUTE EOSINOPHIL [4]: 0 CELLS/uL
ABSOLUTE LYMPHOCYTE [4]: 16873.67 CELLS/uL
ABSOLUTE MONOCYTE [4]: 0 CELLS/uL
ABSOLUTE SEGMENTED NEUTROPHIL [4]: 1459.67 CELLS/uL
BASOPHIL [4]: 0%
EOSINOPHIL [4]: 0%
ERYTHROCYTE COUNT [4]: 5.73 x10E6/uL
HEMATOCRIT [4]: 35.9%
HEMOGLOBIN [4]: 14.23 G/DL
LEUKOCYTE COUNT [4]: 18.33 x10E3/uL
LYMPHOCYTE [4]: 92%
MEAN CORPUSCULAR HEMOGLOBIN [4]: 24.87 pg
MEAN CORPUSCULAR HEMOGLOBIN CONCENTRATION [4]: 39.63 G/DL
MEAN CORPUSCULAR VOLUME [4]: 62.73 fL
MONOCYTE [4]: 0%
NEUTROPHIL [4]: 8%
NUCLEATED RED BLOOD CELLS [4]: 0.33 /100WBC
PLATELET COUNT [4]: 1419 x10E3/uL
ALANINE AMINOTRANSFERASE [4]: 66.67 u/L
ALBUMIN [4]: 4.3 G/DL
ALKALINE PHOSPHATASE [4]: 382.67 u/L
ASPARTATE AMINOTRANSFERASE [4]: 85 u/L
BLOOD UREA NITROGEN [4]: 11.67 mg/dL
CARBON DIOXIDE [4]: 31.67 mmol/L
CHLORIDE [4]: 101.33 MEQ/L
CHOLESTEROL [4]: 76.67 mg/dL
CREATINE PHOSPHOKINASE [4]: 196.33 u/L
CREATININE [4]: 0.14 mg/dL
GLUCOSE [4]: 143 mg/dL
LACTATE DEHYDROGENASE [4]: 166.33 u/L
LIPASE [4]: 11.33 u/L
PHOSPHORUS [4]: 12.5 mg/dL
POTASSIUM [4]: 6.98 MEQ/L
SODIUM [4]: 144.2 MEQ/L
TOTAL BILIRUBIN [4]: 0.17 mg/dL
TOTAL PROTEIN [4]: 6.23 G/DL
URIC ACID [4]: 2.33 mg/dL
